Measurements: US20140249143A1, “Compounds And Methods For Enhancing Innate Immune Responses” (GlaxoSmithKline LLC, priority 2011, published 2014)

Tests used:
[1] = tested on: respiratory syncytial virus (RSV); test: RSV plaque assay on HEp-2 cells; assay type: cell-based
Description: A broad spectrum of antiviral activity of Example 1 was accessed by testing it for potency against other viruses. (See FIG. 8). […] RSV (long form) was inoculated on the layer of HEp-2 cells at multiplicity of infection of <0.001. After 4 hour post infection, the inoculum was replaced with 0.3% agarose containing MEM and various concentration of Example 1 or IFNα. The cells were incubated for up to 5-6 days until the plaques were visible. The cells were then fixed with 3% formaldehyde and stained with neutral red for visualization.

[2] = tested on: ISGs and cytokines mRNA; test: Induction of ISGs in mice in vivo; set-up: species or system Balb/c mice
Description: Naive Balb/c mice were purchased from Charles River Laboratories (Wilmington, Mass.) and administered with murine IFNα2 (30 ug/kg) intravenously or administered with oral Example 1 (300 mg/kg in 30/70% solutol/polyethylene glycol 400). The mice were then euthanized by CO2 inhalation at 0.5, 2, 6, 8, and 24 hours for sample collection. Four mice per dose group were tested.
For RNA isolation, the blood was collected in an RNAprotect™ tube (Qiagen) and processed with RNeasy Protect™ animal blood kit (Qiagen) according to the manufacturer's protocol. To preserve RNA, 30-200 mg of tissue pieces were stored in RNAlater™ solution (Invitrogen) until use. For RNA isolation, the thawed tissues were homogenized using a TissueLyser™ system (Qiagen) and processed with RNeasy 96 Universal Tissue Kit™ (Qiagen) according to the manufacturer's protocol. To remove DNA contamination, on-plate DNase digestion was included during the RNA purification.
For real time RT-PCR, cDNA was made using High Capacity cDNA Reverse Transcription Kit™ (Applied Biosystems). Gene expression was measured using TaqMan Fast Universal PCR Master Mix™ (Applied Biosystems) and gene specific probes and murine primers in HT7900 FAST System™ (Invitrogen). As housekeeping genes, actin and GAPDH were used for normalization. Data was calculated by the ΔΔCt method and fold change determined compared to non-treated control samples.

[3] = tested on: reconstructed human epidermis (RHE) keratinocytes; test: JAK/STAT induction in reconstructed human epidermis (western blot, real-time PCR); assay type: cell-based; details: 10 μM (IFN-alpha 100 U/mL), 6 and 72 hrs
Description: First, reconstructed human epidermis (“RHE”) consisting of cultured human keratinocyte cells were incubated in triplicate with media containing either the media alone, media+0.1% DMSO, media containing 10 μM of several putative JAK/STAT activator compounds described herein in Tables 1 and 2 (Example 1, Example 2, Example 11, and compound no. 89 (as a negative control)), or media containing 100 U/mL of a positive control Interferon-alpha (IFN-alpha) recombinant protein at 37° C. in a humidified atmosphere containing 5% CO2, for 6 and 72 hours.
At the end of the incubation period, the RHE tissues were cut into two sections. One section was ¼ of the total size and the second section was […].

[4] = tested on: HCV genotype 1a subgenomic replicon; test: Anti-Hepatitis C replicon assay, genotype 1a (luciferase); assay type: cell-based; details: Hepatitis C virus; luciferase activity measured 48 hours later; read-out: HCV Genotype 1A Replicon pEC50 (converted)
Summary of the method: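 The 1b line is ET cells carrying the I389luc-ubi-neo/NS3-3′/ET replicon with adaptive mutations E1202G, T1280I and K1846T; the 1a line is an Apath replicon line modified with firefly luciferase. Cells were exposed 48 h to compound (final 0.03 pM–50 μM, 0.5-1% DMSO), read by Steady-Glo luciferase, and IC50 came from 10-point four-parameter logistic fits; cytotoxicity was read by CellTiter-Glo.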

[5] = tested on: STAT1 phosphorylation; test: STAT1 phosphorylation immunoblot in HCV replicon cells; assay type: cell-based
Description: IFNα (100 U/ml) and DMSO were included as controls. The total cell lysates were analyzed on a 4-20% SDS-PAGE gradient gel and followed by immunoblotting using anti-phopho STAT1 antibody (Cell Signaling). The level of actin was monitored as a loading control. The bands were visualized by the alkaline phosphatase activity conjugated with the secondary antibody (Promega) using ProtoBlot II AP System™ (Promega).

[6] = tested on: interferon stimulated genes (ISGs); test: Expression of interferon stimulated genes in HCV replicon cells (real time RT-PCR); assay type: cell-based
Text: The up-regulation of interferon stimulated genes upon treatment with Example 1 was monitored by quantitative real time RT-PCR using specific primers for each gene, as shown in FIG. 3. […] Total RNA was isolated using RNeasy 96 kit (Qiagen) and converted to cDNA using High Capacity cDNA reverse transcription kit (Applied Biosystems). For real time PCR, the cDNA was used for PCR reactions using TaqMan Fast Universal PCR master mix (Applied Biosystems) and specific primers (Applied Biosystems). As housekeeping genes, actin and GAPDH were used for normalization. Data was calculated by the ΔΔCt method and fold change determined compared to DMSO-treated control samples.

For `FC(F)(F)c1cc(C(F)(F)F)c2ccc3nc(-c4nnco4)cn3c2n1` [Compound 1, 2-[2,4-bis(trifluoromethyl)imidazo[1,2-a]1,8-naphthyridin-8-yl]-1,3,4-oxadiazole], the RSV plaques ([1]; 1 μM, compared to DMSO-only) was “reduced the number of plaques”, the RSV plaques ([1]; 5 μM) was “no visible clear plaque” and the “up-regulation of ISGs at 24 hours” value ([2]; Example 1 oral 300 mg/kg, murine IFNα2 30 ug/kg intravenously) was “appeared to sustain”. The “mRNA for Mx1, OAS1A, OAS2, CXCL10, ISG15, and IL6” value ([2]; oral 300 mg/kg, Balb/c mice) was “marked increase”, the “Stat1 phosphorylation (western blot)” value [3] was “Stat1 phosphorylation” and the EC50 [4] was 50.1 nM. For the same compound, the “time up to which phosphor-STAT1 status sustained” value ([5]; 2 uM) was “up to 24 h”, the STAT1 phosphorylation ([5]; Example 1 2 uM, IFNα 100 U/ml, 1 h, 6 h, 24 h) was “induced STAT1 phosphorylation” and the “induction of IFNα and β mRNA (IFNA1, IFNA2, IFNB1)” value ([6]; 2 μM) was “no induction”. The “induction of ISGs (ISG15, Mx1, OAS1, OAS2, CXCL10, IFIH1, STAT2)” value ([6]; 2 μM, time course 1.5-48 h) was “induction of various known ISGs” and the “time of maximum induction of ISGs” value ([6]; Example 1 2 μM, IFNα 100 U/ml) was 8 h.
